Experimental data published in patent publication US20250381198A1 (Melt Pharmaceuticals, Inc., priority 2024, published 2025).
Marks after values point to notes of the source that are not given here.

Test system: subjects undergoing cataract extraction with lens replacement (CELR)
Experiment: Phase 3: adverse events (safety analysis set)
Type: in vivo, human
Experimental: The safety of MELT-300 was performed at baseline, in the course of surgery (intraoperatively), postoperatively on Day 1, and on Day 3+1 day post dose of study medication. Safety assessment included monitoring of AEs, vital sign measurements, and physical examinations.
An overview of adverse events (AEs) is provided in TABLE 57 for the safety analysis set. Reported data includes an overall summary of the presence of any AEs, treatment-emergent ocular adverse events (TEAEs), treatment-related TEAEs, TEAE of special interest (TEAESI), serious AEs (SEAs), and treatment-emergent SAEs (TESAE). Categories were not mutually exclusive. Results include the number of subjects, percent of subjects, and number of events in each category, respectively. A summary of treatment-emergence adverse events (TEAEs) by location, system organ class, and preferred term for the safety analysis set is provided in TABLE 58. A summary of treatment-related treatment-emergent adverse events (TRTEAEs) by system organ class, and preferred term for the safety analysis set is provided in TABLE 59. No SAEs (overall), TESAEs, or treatment-related TESAEs were observed. No SAEs resulting in death or discontinuation of the study was observed.

[1] = Location: Non-Ocular, Safety Analysis Set
[2] = Location: Non-Ocular, Safety analysis set
[3] = Location: Ocular, Safety Analysis Set
[4] = Location: Ocular, Safety analysis set

`Cc1ncc2n1-c1ccc(Cl)cc1C(c1ccccc1F)=NC2` [Midazolam, 8-chloro-6-(2-fluorophenyl)-1-methyl-4H-imidazo[1,5-a][1,4]benzodiazepine] was tested, and the “TEAE: Amnesia” value [1] was 0 n, the “TEAE: Anxiety” value [1] was 0 n and the “TEAE: Back pain” value [1] was 0 n. For the same compound, the “TEAE: Balance disorder” value [1] was 0 n, the “TEAE: Blood pressure increased” value [1] was 0 n and the “TEAE: Blood pressure systolic increased” value [1] was 0 n. The “TEAE: Bradycardia” value [1] was 0 n, the “TEAE: Cardiac disorders (System Organ Class)” value [1] was 0 n and the “TEAE: Cough” value [1] was 0 n. The “TEAE: Dental local anaesthesia” value [1] was 0 n, the “TEAE: Dizziness” value [1] was 0 n and the “TEAE: Fatigue” value [1] was 0 n. For the same compound, the “TEAE: Gastrointestinal disorders (System Organ Class)” value [1] was 0 n, the “TEAE: General disorders and administration site conditions (System Organ Class)” value [1] was 0 n and the “TEAE: Hiccups” value [1] was 0 n. The “TEAE: Hypertension” value [1] was 0 n, the “TEAE: Hypoaesthesia oral” value [1] was 0 n and the “TEAE: Infections and infestations (System Organ Class)” value [1] was 0 n. The “TEAE: Injury, poisoning and procedural complications (System Organ Class)” value [1] was 0 n, the “TEAE: Investigations (System Organ Class)” value [1] was 0 n and the “TEAE: Lethargy” value [1] was 0 n. The “TEAE: Musculoskeletal and connective tissue disorders (System Organ Class)” value [1] was 0 n, the “TEAE: Myalgia” value [1] was 0 n and the “TEAE: Nasal Discomfort” value [1] was 0 n. For the same compound, the “TEAE: Nausea” value [1] was 0 n, the “TEAE: Neck pain” value [1] was 0 n and the “TEAE: Oxygen saturation decreased” value [1] was 0 n. For the same compound, the “TEAE: Post procedural hypotension” value [1] was 0 n, the “TEAE: Procedural nausea” value [1] was 0 n and the “TEAE: Procedural vomiting” value [1] was 0 n. The “TEAE: Product after taste” value [1] was 0 n, the “TEAE: Product issues (System Organ Class)” value [1] was 0 n and the “TEAE: Psychiatric disorders (System Organ Class)” value [1] was 0 n. For the same compound, the “TEAE: Pyrexia” value [1] was 0 n, the “TEAE: Sinusitis” value [1] was 0 n and the “TEAE: Surgical and medical procedures (System Organ Class)” value [1] was 0 n. The “TEAE: Tachycardia” value [1] was 0 n, the “TEAE: Taste disorder” value [1] was 0 n and the “TEAE: Vascular disorders (System Organ Class)” value [1] was 0 n. The “Any AE, events” value [2] was 9 #, the “Any AE, subjects” value [2] was 7 (7.9) n (%) and the “Any Grade 3+ TEAE, events” value [2] was 0 #. For the same compound, the “Any Grade 3+ TEAE, subjects” value [2] was 0 n (%), the “Any SAE, events” value [2] was 0 # and the “Any SAE, subjects” value [2] was 0 n (%). For the same compound, the “Any TEAE Resulting in Death, events” value [2] was 0 #, the “Any TEAE Resulting in Death, subjects” value [2] was 0 n (%) and the “Any TEAE Resulting in Study Drug Interruption, events” value [2] was 0 #. The “Any TEAE Resulting in Study Drug Interruption, subjects” value [2] was 0 n (%), the “Any TEAE Resulting in Study Drug Withdrawal, events” value [2] was 0 # and the “Any TEAE Resulting in Study Drug Withdrawal, subjects” value [2] was 0 n (%). The “Any TEAE, events” value [2] was 5 #, the “Any TEAE, subjects” value [2] was 4 (4.5) n (%) and the “Any TEAESI, events” value [2] was 2 #. The “Any TEAESI, subjects” value [2] was 2 (2.2) n (%), the “Any TESAE, events” value [2] was 0 # and the “Any TESAE, subjects” value [2] was 0 n (%). The “Any Treatment-Related TEAE Resulting in Death, events” value [2] was 0 #, the “Any Treatment-Related TEAE Resulting in Death, subjects” value [2] was 0 n (%) and the “Any Treatment-Related TEAE, events” value [2] was 3 #. The “Any Treatment-Related TEAE, subjects” value [2] was 2 (2.2) n (%), the “Any Treatment-Related TEAESI, events” value [2] was 1 # and the “Any Treatment-Related TEAESI, subjects” value [2] was 1 (1.1) n (%). The “Any Treatment-Related TESAE, events” value [2] was 0 #, the “Any Treatment-Related TESAE, subjects” value [2] was 0 n (%) and the “Any Unexpected TEAE, events” value [2] was 0 #. For the same compound, the “Any Unexpected TEAE, subjects” value [2] was 0 n (%), the “Any Unexpected Treatment-Related TEAE, events” value [2] was 0 # and the “Any Unexpected Treatment-Related TEAE, subjects” value [2] was 0 n (%). The “TEAESI: Abuse-related AEs, events” value [2] was 0 #, the “TEAESI: Abuse-related AEs, subjects” value [2] was 0 n (%) and the “TEAESI: Cardiovascular AEs, events” value [2] was 1 #. The “TEAESI: Cardiovascular AEs, subjects” value [2] was 1 (1.1) n (%), the “TEAESI: Ketamine emergence delirium, events” value [2] was 0 # and the “TEAESI: Ketamine emergence delirium, subjects” value [2] was 0 n (%). The “TEAESI: Neurocognitive AEs, events” value [2] was 0 #, the “TEAESI: Neurocognitive AEs, subjects” value [2] was 0 n (%) and the “TEAESI: Oral/pharyngeal AEs, events” value [2] was 0 #. The “TEAESI: Oral/pharyngeal AEs, subjects” value [2] was 0 n (%), the “TEAESI: Oversedation requiring the use of flumazenil, events” value [2] was 0 # and the “TEAESI: Oversedation requiring the use of flumazenil, subjects” value [2] was 0 n (%). The “TEAESI: Respiratory AEs, events” value [2] was 1 #, the “TEAESI: Respiratory AEs, subjects” value [2] was 1 (1.1) n (%) and the “TEAE: Abnormal sensation in eye” value [3] was 0 n. For the same compound, the “TEAE: Corneal abrasion” value [3] was 0 n, the “TEAE: Corneal oedema” value [3] was 0 n and the “TEAE: Diplopia” value [3] was 0 n. The “TEAE: General disorders and administration site conditions (System Organ Class)” value [3] was 0 n, the “TEAE: Glare” value [3] was 0 n and the “TEAE: Injury, poisoning and procedural complications (System Organ Class)” value [3] was 0 n. The “TEAE: Installation site pain” value [3] was 0 n, the “TEAE: Lacrimation increased” value [3] was 0 n and the “TEAE: Ocular discomfort” value [3] was 0 n. For the same compound, the “TEAE: Photophobia” value [3] was 0 n, the “TEAE: Photopsia” value [3] was 0 n and the “TEAE: Procedural pain” value [3] was 0 n. For the same compound, the “TEAE: Visual field defect” value [3] was 0 n, the “TEAE: Visual impairment” value [3] was 0 n and the “Any AE, events” value [4] was 15 #. The “Any AE, subjects” value [4] was 10 (11.2) n (%), the “Any Grade 3+ TEAE, events” value [4] was 0 # and the “Any Grade 3+ TEAE, subjects” value [4] was 0 n (%). The “Any Grade 3+ Treatment-Related TEAE, events” value [4] was 0 #, the “Any Grade 3+ Treatment-Related TEAE, subjects” value [4] was 0 n (%) and the “Any SAE, events” value [4] was 0 #. The “Any SAE, subjects” value [4] was 0 n (%), the “Any TEAE Resulting in Death, events” value [4] was 0 # and the “Any TEAE Resulting in Death, subjects” value [4] was 0 n (%). For the same compound, the “Any TEAE Resulting in Study Drug Interruption, events” value [4] was 0 #, the “Any TEAE Resulting in Study Drug Interruption, subjects” value [4] was 0 n (%) and the “Any TEAE Resulting in Study Drug Withdrawal, events” value [4] was 0 #. For the same compound, the “Any TEAE Resulting in Study Drug Withdrawal, subjects” value [4] was 0 n (%), the “Any TEAE, events” value [4] was 15 # and the “Any TEAE, subjects” value [4] was 10 (11.2) n (%). For the same compound, the “Any TEAESI, events” value [4] was 0 #, the “Any TEAESI, subjects” value [4] was 2 (2.2) n (%) and the “Any TESAE, events” value [4] was 0 #. The “Any TESAE, subjects” value [4] was 0 n (%), the “Any Treatment-Related TEAE, events” value [4] was 1 # and the “Any Treatment-Related TEAE, subjects” value [4] was 1 (1.1) n (%). The “Any Treatment-Related TEAESI, events” value [4] was 0 #, the “Any Treatment-Related TEAESI, subjects” value [4] was 0 n (%) and the “Any Treatment-Related TESAE, events” value [4] was 0 #. For the same compound, the “Any Treatment-Related TESAE, subjects” value [4] was 0 n (%), the “Any Unexpected TEAE, events” value [4] was 9 # and the “Any Unexpected TEAE, subjects” value [4] was 6 (6.7) n (%). The “Any Unexpected Treatment-Related TEAE, events” value [4] was 0 #.
